From PMC2949467 (Journal of inorganic biochemistry, 2010)

Tests used:
T. cruzi = details: cited from earlier work
[1] = system: T. cruzi epimastigotes (Tulahuen 2 strain); experiment: In vitro activity on T. cruzi epimastigotes; format: cell-based; details: Trypanosoma cruzi, 120 h, read-out: PGI25μM (%) (epimastigote): percentage of growth inhibition of T. cruzi epimastigote cells

Compound: O=P(O)(O)C(O)(Cc1cccnc1)P(=O)(O)O [NaRis, (1-hydroxy-1-phosphono-2-pyridin-3-yl-ethyl)phosphonate]
- Parasitemia in infected mice (T. cruzi): significantly reduces the parasitemia
- Toxicity in infected mice (T. cruzi): no toxicity
- Animal survival (T. cruzi; infected mice): increases the animal survival
- inhibition at 25 µM [1]: 19%
